# Results: article PMC8773409, “Tetrapeptides Modelled to the Androgen Binding Site of ZIP9 Stimulate Expression of Tight Junction Proteins and Tight Junction Formation in Sertoli Cells” (Biology, 2021)
# Tests used:
# ZIP9 mRNA = experiment: RT-PCR of ZIP9 mRNA after siRNA silencing; assay type: cell-based, rat; conditions: ZIP9-siRNA-treated 93RS2 cells
# Description: A total of 6 × 10^4 93RS2 cells were cultured in 2-cm wells of a 6-well plate for 24 h. Thereafter, cells were treated for 48 h either with ZIP9-specific siRNA (ZIP9-siRNA; 5′GGAUUAAGUAAGAGCAGUAtt3′ and 5′UACUGCUCUUACUUAAUCCta3′) to silence ZIP9 expression or with an appropriate negative control siRNA (nc-siRNA), as described previously. ZIP9-siRNA and nc-siRNA were part of the kit Silencer® Select Pre-designed siRNA, provided by Invitrogen (Thermo Fisher Scientific, Schwerte, Germany). After the siRNA treatment, RNeasy® Mini Kit (Qiagen GmbH, Hilden, Germany) was used to isolate mRNA. The concentration of the extracted mRNA was quantified by the NanodropTM One spectrophotometer (Thermo Fisher Scientific, Schwerte, Germany). Samples were measured in duplicate and the average values were used.
# RT-PCR was applied in order to assess the success of silencing ZIP9 expression by siRNA. mRNA that had been isolated from cells treated with either nc-siRNA or ZIP9-specific siRNA was processed to cDNA using the Reverse Transcription System (Promega GmbH, Mannheim, Germany) according to the protocol of the provider. A total of 1 µg cDNA, quantified by the NanodropTM One spectrophotometer, was used in the PCR-Master-Mix ready-to-load (Bio&SELL GmbH, Feucht, Germany) to detect ZIP9-specific cDNA. […]
# ZIP9 = ZIP9 protein immunofluorescence after siRNA silencing; assay type: cell-based, rat; conditions: ZIP9-siRNA-treated 93RS2 cells; n = 30, means ± SEM
# Description: (§1) For visualization by immunofluorescence, the medium containing the primary antibody was replaced with PBS containing 1% BSA, 0.3% Triton X-100, and the secondary antibody (goat anti-rabbit IgG diluted at 1:500 in 2% FCS, 0.1 Triton X-100 in PBS) labeled with AlexaFluor 488 (Life Technologies, Darmstadt, Germany). This medium was removed by aspiration after 1 h at room temperature and cells were washed in PBS 3 times. All incubation steps with UV-sensitive reagents were carried out in the dark. An inverse Olympus IX81 microscope equipped with the corresponding fluorescence system (Olympus, Hamburg, Germany) was used to acquire images.
# (§2) Fluorescence was measured according to the instructions of the ImageJ software program (freely available at http://rsbweb.nih.gov/ij/, accessed on 23 December 2021) according to the protocol provided (http://www.slu.se/PageFiles/388774/Pacho%20ImageJ¬¬%20-measuring-cell-fluo¬rescence.pdf, accessed on 23 December 2021). Only green fluorescence was considered. The fluorescence of 3 × 25 cells closest to the diagonals of photomicrographs from 3 independent experiments was considered for statistical analysis. […]
# A total of 6 × 10^4 93RS2 cells were cultured in 2-cm wells of a 6-well plate for 24 h. […] The concentration of the extracted mRNA was quantified by the NanodropTM One spectrophotometer (Thermo Fisher Scientific, Schwerte, Germany). […]
# [1] = test system: Erk1/2 phosphorylation (via ZIP9) in 93RS2 cells; experiment: Western blot of phospho-Erk1/2 in 93RS2 Sertoli cells; assay type: cell-based, rat
# Description: (§3) The medium was replaced every two days.
# (§4) A total of 1 × 10^5 93RS2 cells were grown in 10-cm culture dishes as described above. Cells were then incubated for 24 h with 1% FBS before treatment with various concentrations of the peptides dissolved in medium or testosterone dissolved in ethanol; equal amounts of ethanol were also added to the peptide-treated cells and to control incubations. […] After centrifugation of the lysates at 4 °C for 10 min at 13,000× g, the protein concentration in the supernatants was determined using a bicinchoninic acid (BCA) protein assay reagent kit (Pierce, Rockford, IL, USA) with inclusion of the lysis buffer in the standard curve.
# (§5) For Western blotting, 10 µg of protein from cell lysates was separated by SDS-PAGE on slab gels containing 10% acrylamide and 0.3% N,N′-methylene-bis-acrylamide. […] The resulting chemiluminescence was recorded by exposure to film, which was analyzed with the software program ImageJ (freely available at http://rsbweb.nih.gov/ij/ (accessed on 31 December 2021)). Loading differences in the various Western blots were corrected by taking into consideration the optical density of bands corresponding to unphosphorylated Erk1/2 bands or total actin detected in Western blots that were run in parallel. […]
# [2] = test system: total Erk1/2 in 93RS2 cells; experiment: Expression of total Erk1/2 in 93RS2 lysates; assay type: cell-based, rat; conditions: lysates of treated 93RS2 cells; data not shown
# Description: as §4, with “incubations. After 30 min of incubation the medium was removed by aspiration, and cells were washed twice with ice-cold PBS (without Ca^2+ or Mg^2+; Thermo Fisher Scientific, Darmstadt, Germany) and then lysed in 400 µL of a commercially available cell lysis buffer (Cell Signaling Technology, Frankfurt, Germany) according to the protocol of the provider.” for “incubations.”
# For Western blotting, 10 µg of protein from cell lysates was separated by SDS-PAGE on slab gels containing 10% acrylamide and 0.3% N,N′-methylene-bis-acrylamide. […] The resulting chemiluminescence was recorded by exposure to film, which was analyzed with the software program ImageJ (freely available at http://rsbweb.nih.gov/ij/ (accessed on 31 December 2021)). […]
# claudin-5 in 93RS2 cells = experiment: Immunofluorescence of claudin-5 in 93RS2 cells; assay type: cell-based, rat; conditions: 10 nM testosterone or 10 µM peptide, 24 h
# [3] = test system: 93RS2 Sertoli cells (tight junction formation); experiment: Transepithelial electrical resistance (TER) across 93RS2 monolayers; assay type: cell-based, rat; conditions: ZIP9-siRNA; 10 nM testosterone or 10 µM peptides; up to 72 h
# Description: as §3
# A total of 3 × 10^4 cells were added to 0.4-µm pore ThinCertsTM (Greiner Bio-one GmbH, Frickenhausen, Germany) arranged within 1-cm wells of a 24-well plate. Cells were cultured for 24 h. Stimulation was then carried out with either testosterone or peptides at concentrations of 0.1, 1, 10, or 100 nM (testosterone) or 0.1, 1, 10, or 100 µM (peptides). Control incubations received ethanol vehicle only. TER was determined after 0, 24, 48, and 72 h, with the first measurement being made immediately after addition of testosterone or peptides. Stimulants remained in the cell medium for the entire duration of the experiment, and during this time the medium was not renewed. A Millicell ERS-2 epithelial Volt-Ohm Meter (Merck Millipore, Darmstadt, Germany) was used to measure TER. Each experiment was repeated three times. Similar experiments were carried out after silencing expression of ZIP9 by siRNA.
# Data were analyzed by GraphPad Prism4 software and by applying either the unpaired t-test with Welch’s corrections or one-way ANOVA with repeated measures and Dunnett´s comparison of all data to the control. Significance was accepted at p ≤ 0.05.
# [4] = test system: CREB/ATF-1 phosphorylation (via ZIP9) in 93RS2 cells; experiment: Western blot of phospho-CREB/phospho-ATF-1 in 93RS2 Sertoli cells; assay type: cell-based, rat
# Description: as §3
# as §4, with “incubations. After 30 min of incubation the medium was removed by aspiration, and cells were washed twice with ice-cold PBS (without Ca^2+ or Mg^2+; Thermo Fisher Scientific, Darmstadt, Germany) and then lysed in 400 µL of a commercially available cell lysis buffer (Cell Signaling Technology, Frankfurt, Germany) according to the protocol of the provider. Immediately before use, […], 1× protease inhibitor cocktail (Roche, Mannheim, Germany), and 2 µg/mL pepstatin were added to the lysis buffer. All lysis steps were carried out on ice.” for “incubations.”
# as §5
# Data were analyzed by GraphPad Prism4 software and by applying either the unpaired t-test with Welch’s corrections or one-way ANOVA with repeated measures and Dunnett´s comparison of all data to the control. […]
# claudin-1 in 93RS2 cells = experiment: Immunofluorescence of claudin-1 in 93RS2 cells; assay type: cell-based, rat; conditions: 10 nM testosterone or 10 µM peptide, 24 h
# [5] = test system: Erk1/2 phosphorylation in 93RS2 cells; experiment: Immunofluorescence of phospho-Erk1/2 in 93RS2 cells; assay type: cell-based, rat; conditions: 10 nM testosterone or 10 µM peptide, 30 min, n = 3 × 25
# Description: as §3
# (§6) Each chamber of 4-chamber slides was plated with 1 × 10^4 93RS2 cells and cultured as described above to approximately 80% confluence. Incubation was then carried out with either 10 nM testosterone or 10 µM of each of the peptides or with vehicle only (control). The medium was removed by aspiration after 30 min, and cells were fixed for 15 min in absolute methanol containing DAPI (4′,6-diamidino-2-phenylindole). After aspirating the fixative, cells were treated with blocking solution (3% BSA and 0.3% Triton X-100 in PBS) for 1 h. […]
# as §1, with “This medium was removed by aspiration after 1 h at room temperature and cells were washed in PBS 3 times. All incubation steps with UV-sensitive reagents were carried out in the dark.” left out
# as §2, with “considered.” for “considered. The fluorescence of 3 × 25 cells closest to the diagonals of photomicrographs from 3 independent experiments was considered for statistical analysis.”
# [6] = test system: CREB/ATF-1 phosphorylation in 93RS2 cells; experiment: Immunofluorescence of phospho-CREB/phospho-ATF-1 in 93RS2 cells; assay type: cell-based, rat; conditions: 10 nM testosterone or 10 µM peptide, 30 min
# Description: as §3, §6
# as §1, with “This medium was removed by aspiration after 1 h at room temperature and cells were washed in PBS 3 times. All incubation steps with UV-sensitive reagents were carried out in the dark.” left out
# as §2, with “considered.” for “considered. The fluorescence of 3 × 25 cells closest to the diagonals of photomicrographs from 3 independent experiments was considered for statistical analysis.”
# [7] = test system: claudin-1 and claudin-5 expression in rodent Sertoli cells; design: method as in PMID 27164415, PMID 12851029, PMID 20403878, doi:10.1093/biolreprod/83.s1.109; conditions: ref [6],[29],[34],[35]; cited from earlier work
# [8] = test system: ZO-1 expression in 93RS2 cells; experiment: Immunofluorescence of ZO-1 in 93RS2 cells; assay type: cell-based, rat; conditions: 10 nM testosterone or 10 µM peptide, 24 h
# [9] = test system: androgen binding site of ZIP9 on 93RS2 cells; experiment: Cell-surface labeling with testosterone-BSA-FITC (displacement); conditions: 20 min; for labeling of 93RS2 cells by fluorescent conjugate: 5 µM, room temperature, no competitor, ZIP9 expressed
# Description: Cells were cultured in a humidified incubator (37 °C, 5% CO2) in 1:1 DMEM:Ham’s F-12 medium with L-glutamine supplemented with 10% (v/v) fetal bovine serum (FBS) and 1% (v/v) penicillin/streptomycin. The medium was replaced every two days.
# A total of 93 RS2 cells were cultured at a density of 5 × 10^3 cells per well in 24-well plates as described above. After reaching about 80% confluence, the cells were treated with either 10 nM testosterone or 1 µM of each of the peptides for 1 h. Both peptide-treated cells and controls were also treated with ethanol vehicle at the same concentration as other plates of cells treated with testosterone dissolved in ethanol. […] After incubation for an additional 20 min at room temperature, the medium was aspirated and cells were fixed in 400 µL ice-cold methanol containing 20 ng of 4,6-diamino-2-phenylindole (DAPI) at room temperature. This solution was aspirated after 15 min and cells were washed with 700 μL PBS. Cell imaging was carried out in 400 µL PBS using an inverse Olympus IX81 microscope (Olympus, Hamburg, Germany).
# In order to account for non-specific binding, cells were incubated for 20 min with 5 µM BSA-FITC (lacking the testosterone moiety) diluted in Tris-Buffer (pH 7.2) at room temperature. After washing twice with PBS and fixing in absolute methanol containing DAPI for 15 min, images were obtained as described above.
# [10] = 30 min, T 0.1-100 nM, peptides 0.1-100 µM, Western blot
molecule,measurement,setting,value
"5′GGAUUAAGUAAGAGCAGUAtt3′ and 5′UACUGCUCUUACUUAAUCCta3′ (chain 1 GGAUUAAGUAAGAGCAGUATT; chain 2 UACUGCUCUUACUUAAUCCTA; siRNA; chemistry not fully specified) [ZIP9-siRNA, ZIP9-specific siRNA to silence ZIP9 expression]",presence of ZIP9-specific mRNA/cDNA vs nc-siRNA,ZIP9 mRNA,greatly reduced
same,ZIP9-specific immunofluorescence remaining vs control conditions,ZIP9,7.93 ± 1.1%
C[C@]12CC[C@H]3[C@@H](CCC4=CC(=O)CC[C@@]43C)[C@@H]1CC[C@@H]2O [testosterone],"stimulation of Erk1/2 phosphorylation, in words",[1]; [10],stimulated in a concentration-dependent manner the phosphorylation of Erk1/2
same,EC50,"[1]; Rattus norvegicus, 0.5 h, read-out: EC50 for stimulation of Erk1/2 phosphorylation (approximate, Discussion)",~0.5 nM
same,effect on expression of total Erk1/2,[2],without affecting the expression of the enzyme protein
same,"claudin-5 expression and localization, ZIP9 silenced",claudin-5 in 93RS2 cells; ZIP9-siRNA,Only basal levels of Claudin-5 are detected
same,"claudin-5 expression, ZIP9 expressed",claudin-5 in 93RS2 cells; nc-siRNA,stimulated the expression of claudin-5
same,"TER increase, ZIP9 silenced",[3],failed to stimulate TER increase
same,"stimulation of CREB/ATF-1 phosphorylation, in words",[4]; [10],stimulate the phosphorylation of the transcription factors CREB and ATF-1
same,EC50,"[4]; Rattus norvegicus, 0.5 h, read-out: EC50 for CREB and ATF-1 phosphorylation (approximate, Discussion)",~0.5 nM
same,concentration of maximum effect on CREB/ATF-1 phosphorylation,[4]; testosterone (Discussion),10 nM
same,"claudin-1 distribution, ZIP9 silenced",claudin-1 in 93RS2 cells; ZIP9-siRNA,This re-distribution was not observed
same,"claudin-1 distribution, ZIP9 expressed",claudin-1 in 93RS2 cells; nc-siRNA,triggered re-distribution of claudin-1 from the cytosol to the membranes or to the nuclei
same,claudin-1 expression level,claudin-1 in 93RS2 cells; nc-siRNA,do not seem to influence the expression level of claudin-1
same,"phosphorylation of Erk1/2 by immunofluorescence, ZIP9 silenced",[5]; ZIP9-siRNA-treated cells,abolished the stimulation of Erk1/2 phosphorylation
same,"phosphorylation of Erk1/2 by immunofluorescence, ZIP9 expressed",[5]; nc-siRNA-treated cells,triggered the phosphorylation of Erk1/2
same,"phosphorylation of CREB/ATF-1 by immunofluorescence, ZIP9 silenced",[6]; ZIP9-siRNA-treated cells,complete loss of the stimulatory effect
same,"phosphorylation of CREB/ATF-1 within nuclei by immunofluorescence, ZIP9 expressed",[6]; nc-siRNA-treated cells,stimulated phosphorylation of the transcription factors within the nuclei
same,claudin-1 and claudin-5 expression,[7],stimulate claudin-1 and claudin-5 expression
same,"ZO-1 expression, ZIP9 silenced",[8]; ZIP9-siRNA,did not respond
same,"ZO-1 expression, ZIP9 expressed",[8]; nc-siRNA,stimulated the expression of zona occludens (ZO-1)
BSA-FITC: BSA-FITC (lacking the testosterone moiety),labeling of 93RS2 cells by fluorescent conjugate,[9],Relatively low signals of green fluorescence
Testosterone 3-(O-carboxymethyl)oxime:BSA-fluorescein isothiocyanate [T-BSA-FITC],labeling of 93RS2 cells by fluorescent conjugate,[9],uniform green labeling of the extracellular surface of the cells
same,"labeling of cell membranes by testosterone-BSA-FITC, ZIP9 silenced","[9]; ZIP9-siRNA-treated cells, 5 µM T-BSA-FITC",completely prevented
